Experimental data published in ChEMBL document CHEMBL3045592, “Studies of O,O-dimethyl α-(2,4-dichlorophenoxyacetoxy)ethylphosphonate (HW02) as a new herbicide. 1. Synthesis and herbicidal activity of HW02 and analogues as novel inhibitors of pyruvate dehydrogenase complex” (J Agric Food Chem, 2011).

Tests used:
[1] = system: Chenopodium album; experiment: Pre-emergence herbicidal activity against Chenopodium album assessed as growth inhibition at 450 ai g/ha after 20 days by green house test; format: functional
[2] = system: Abutilon theophrasti; experiment: Pre-emergence herbicidal activity against Abutilon theophrasti (velvetleaf) assessed as growth inhibition at 450 ai g/ha after 20 days by green house test; format: functional
[3] = system: Chenopodium album; experiment: Post-emergence herbicidal activity against Chenopodium album assessed as growth inhibition at 150 ai g/ha after 20 days by green house test; format: functional
[4] = system: Abutilon theophrasti; experiment: Post-emergence herbicidal activity against Abutilon theophrasti (velvetleaf) assessed as growth inhibition at 75 ai g/ha after 20 days by green house test; format: functional
[5] = system: Digitaria sanguinalis; experiment: Pre-emergence herbicidal activity against Digitaria sanguinalis (hairy crabgrass) assessed as growth inhibition at 75 ai g/ha after 20 days by green house test; format: functional
[6] = system: Abutilon theophrasti; experiment: Pre-emergence herbicidal activity against Abutilon theophrasti (velvetleaf) assessed as growth inhibition at 75 ai g/ha after 20 days by green house test; format: functional
[7] = system: Amaranthus spinosus; experiment: Post-emergence herbicidal activity against Amaranthus spinosus assessed as growth inhibition at 75 ai g/ha after 20 days by green house test; format: functional
[8] = system: Amaranthus spinosus; experiment: Post-emergence herbicidal activity against Amaranthus spinosus assessed as growth inhibition at 150 ai g/ha after 20 days by green house test; format: functional
[9] = system: Digitaria sanguinalis; experiment: Pre-emergence herbicidal activity against Digitaria sanguinalis (hairy crabgrass) assessed as growth inhibition at 450 ai g/ha after 20 days by green house test; format: functional
[10] = system: Abutilon theophrasti; experiment: Post-emergence herbicidal activity against Abutilon theophrasti (velvetleaf) assessed as growth inhibition at 450 ai g/ha after 20 days by green house test; format: functional
[11] = system: Abutilon theophrasti; experiment: Pre-emergence herbicidal activity against Abutilon theophrasti (velvetleaf) assessed as growth inhibition at 150 ai g/ha after 20 days by green house test; format: functional
[12] = system: Setaria viridis; experiment: Pre-emergence herbicidal activity against Setaria viridis (green foxtail) assessed as growth inhibition at 150 ai g/ha after 20 days by green house test; format: functional
[13] = system: Amaranthus spinosus; experiment: Pre-emergence herbicidal activity against Amaranthus spinosus assessed as growth inhibition at 75 ai g/ha after 20 days by green house test; format: functional
[14] = system: Amaranthus retroflexus; experiment: Pre-emergence herbicidal activity against Amaranthus retroflexus assessed as growth inhibition at 1500 ai g/ha after 20 days by green house test; format: functional
[15] = system: Digitaria sanguinalis; experiment: Post-emergence herbicidal activity against Digitaria sanguinalis (hairy crabgrass) assessed as growth inhibition at 75 ai g/ha after 20 days by green house test; format: functional
[16] = system: Medicago sativa; experiment: Post-emergence herbicidal activity against Medicago sativa (alfalfa) assessed as growth inhibition at 1500 ai g/ha after 20 days by green house test; format: functional
[17] = system: Medicago sativa; experiment: Pre-emergence herbicidal activity against Medicago sativa (alfalfa) assessed as growth inhibition at 1500 ai g/ha after 20 days by green house test; format: functional
[18] = system: Brassica rapa subsp. oleifera; experiment: Pre-emergence herbicidal activity against Brassica rapa subsp. oleifera Si Yue Man assessed as growth inhibition at 1500 ai g/ha after 20 days by green house test; format: functional
[19] = system: Setaria viridis; experiment: Pre-emergence herbicidal activity against Setaria viridis (green foxtail) assessed as growth inhibition at 75 ai g/ha after 20 days by green house test; format: functional
[20] = system: Digitaria sanguinalis; experiment: Post-emergence herbicidal activity against Digitaria sanguinalis (hairy crabgrass) assessed as growth inhibition at 1500 ai g/ha after 20 days by green house test; format: functional
[21] = system: Brassica rapa subsp. oleifera; experiment: Post-emergence herbicidal activity against Brassica rapa subsp. oleifera Si Yue Man assessed as growth inhibition at 1500 ai g/ha after 20 days by green house test; format: functional
[22] = system: Amaranthus spinosus; experiment: Post-emergence herbicidal activity against Amaranthus spinosus assessed as growth inhibition at 450 ai g/ha after 20 days by green house test; format: functional
[23] = system: Setaria viridis; experiment: Post-emergence herbicidal activity against Setaria viridis (green foxtail) assessed as growth inhibition at 150 ai g/ha after 20 days by green house test; format: functional
[24] = system: Digitaria sanguinalis; experiment: Post-emergence herbicidal activity against Digitaria sanguinalis (hairy crabgrass) assessed as growth inhibition at 450 ai g/ha after 20 days by green house test; format: functional
[25] = system: Digitaria sanguinalis; experiment: Pre-emergence herbicidal activity against Digitaria sanguinalis (hairy crabgrass) assessed as growth inhibition at 150 ai g/ha after 20 days by green house test; format: functional
[26] = system: Setaria viridis; experiment: Post-emergence herbicidal activity against Setaria viridis (green foxtail) assessed as growth inhibition at 450 ai g/ha after 20 days by green house test; format: functional
[27] = system: Chenopodium album; experiment: Pre-emergence herbicidal activity against Chenopodium album assessed as growth inhibition at 75 ai g/ha after 20 days by green house test; format: functional
[28] = system: Setaria viridis; experiment: Post-emergence herbicidal activity against Setaria viridis (green foxtail) assessed as growth inhibition at 75 ai g/ha after 20 days by green house test; format: functional
[29] = system: Echinochloa crus-galli; experiment: Pre-emergence herbicidal activity against Echinochloa crus-galli (barnyard grass) assessed as growth inhibition at 1500 ai g/ha after 20 days by green house test; format: functional
[30] = system: Chenopodium album; experiment: Post-emergence herbicidal activity against Chenopodium album assessed as growth inhibition at 450 ai g/ha after 20 days by green house test; format: functional
[31] = system: Chenopodium album; experiment: Pre-emergence herbicidal activity against Chenopodium album assessed as growth inhibition at 150 ai g/ha after 20 days by green house test; format: functional
[32] = system: Digitaria sanguinalis; experiment: Post-emergence herbicidal activity against Digitaria sanguinalis (hairy crabgrass) assessed as growth inhibition at 150 ai g/ha after 20 days by green house test; format: functional
[33] = system: Digitaria sanguinalis; experiment: Pre-emergence herbicidal activity against Digitaria sanguinalis (hairy crabgrass) assessed as growth inhibition at 1500 ai g/ha after 20 days by green house test; format: functional
[34] = system: Amaranthus retroflexus; experiment: Post-emergence herbicidal activity against Amaranthus retroflexus assessed as growth inhibition at 1500 ai g/ha after 20 days by green house test; format: functional
[35] = system: Setaria viridis; experiment: Pre-emergence herbicidal activity against Setaria viridis (green foxtail) assessed as growth inhibition at 450 ai g/ha after 20 days by green house test; format: functional
[36] = system: Chenopodium album; experiment: Post-emergence herbicidal activity against Chenopodium album assessed as growth inhibition at 75 ai g/ha after 20 days by green house test; format: functional
[37] = system: Amaranthus spinosus; experiment: Pre-emergence herbicidal activity against Amaranthus spinosus assessed as growth inhibition at 150 ai g/ha after 20 days by green house test; format: functional
[38] = system: Echinochloa crus-galli; experiment: Post-emergence herbicidal activity against Echinochloa crus-galli (barnyard grass) assessed as growth inhibition at 1500 ai g/ha after 20 days by green house test; format: functional
[39] = system: Amaranthus spinosus; experiment: Pre-emergence herbicidal activity against Amaranthus spinosus assessed as growth inhibition at 450 ai g/ha after 20 days by green house test; format: functional
[40] = system: Abutilon theophrasti; experiment: Post-emergence herbicidal activity against Abutilon theophrasti (velvetleaf) assessed as growth inhibition at 150 ai g/ha after 20 days by green house test; format: functional
[41] = system: Echinochloa crus-galli; experiment: Post-emergence herbicidal activity against Echinochloa crus-galli (barnyard grass) assessed as growth inhibition at 450 ai g/ha after 20 days by green house test; format: functional
[42] = system: Brassica juncea; experiment: Post-emergence herbicidal activity against Brassica juncea assessed as growth inhibition at 450 ai g/ha after 20 days by green house test; format: functional
[43] = Toxicity against Oryza sativa (rice) assessed as growth inhibition at 450 ai g/ha post-emergent application measured after 20 days by green house crop selectivity test; format: organism-based; conditions: in vivo, read-out: GI
[44] = molecular target: Pyruvate dehydrogenase complex (Vigna radiata var. radiata); experiment: Inhibition of PDHc in Vigna radiata var. radiata VC2778A shoot mitochondria assessed as decrease in rate of NADH formation using sodium pyruvate as substrate preincubated for 25 min before substrate addition measured after 1 min by spectrophotometric assay; format: protein-complex assay
[45] = system: Amaranthus retroflexus; experiment: Post-emergence herbicidal activity against Amaranthus retroflexus assessed as growth inhibition at 450 ai g/ha after 20 days by green house test; format: functional
[46] = system: Cucumis sativus; experiment: Herbicidal activity against Cucumis sativus Jin 4 (cucumber) assessed as inhibition of root growth after 3 days; format: functional, organism-based; conditions: Jin 4, 72 h
[47] = system: Pisum sativum; experiment: Post-emergence herbicidal activity against Pisum sativum Zhongwan-2 (pea) assessed as growth inhibition at 450 ai g/ha after 20 days by green house test; conditions: Lathyrus oleraceus

Row | SMILES | growth inhibition (GI) [1] | growth inhibition (GI) [2] | growth inhibition (GI) [3] | growth inhibition (GI) [4] | growth inhibition (GI) [5] | growth inhibition (GI) [6] | growth inhibition (GI) [7] | growth inhibition (GI) [8] | growth inhibition (GI) [9] | growth inhibition (GI) [10] | growth inhibition (GI) [11] | growth inhibition (GI) [12] | growth inhibition (GI) [13] | growth inhibition (GI) [15] | growth inhibition (GI) [19] | growth inhibition (GI) [22] | growth inhibition (GI) [23] | growth inhibition (GI) [24] | growth inhibition (GI) [25] | growth inhibition (GI) [26] | further results
1 | COP(=O)(OC)C(OC(=O)COc1ccc(Cl)cc1C)c1cccc([N+](=O)[O-])c1 (configuration not stated) | 0% | 0% | 82.5% | 50% | 0% | 0% | 50% | 100% | 0% | 100% | 0% | 0% | 0% | 0% | 0% | 100% | 0% | 10% | 0% | 0% | growth inhibition (GI) [14]: 75%; growth inhibition (GI) [16]: 50%; growth inhibition (GI) [17]: 75%; growth inhibition (GI) [18]: 50%; growth inhibition (GI) [20]: <=50%; growth inhibition (GI) [21]: 75%; growth inhibition (GI) [27]: 0%; growth inhibition (GI) [28]: 0%; growth inhibition (GI) [29]: 90%; growth inhibition (GI) [30]: 100%; growth inhibition (GI) [31]: 0%; growth inhibition (GI) [32]: 0%; growth inhibition (GI) [33]: 90%; growth inhibition (GI) [34]: 90%; growth inhibition (GI) [35]: 0%; growth inhibition (GI) [36]: 52.5%; growth inhibition (GI) [37]: 0%; growth inhibition (GI) [38]: 75%; growth inhibition (GI) [39]: 0%; growth inhibition (GI) [40]: 90%
2 | CCOP(=O)(OCC)C(C)OC(=O)COc1ccc(Cl)cc1Cl (configuration not stated) | 52.5% | 47.5% | 92.5% | 97.5% | 0% | 0% | 52.5% | 82.5% | 10% | 100% | 0% | 0% | 0% | 0% | 0% | 100% | 0% | 0% | 0% | 0% | growth inhibition (GI) [27]: 0%; growth inhibition (GI) [41]: 5%; growth inhibition (GI) [28]: 0%; growth inhibition (GI) [30]: 97.5%; growth inhibition (GI) [42]: 97.5%; growth inhibition (GI) [31]: 0%; growth inhibition (GI) [32]: 0%; inhibition at 480 h [43]: 37.5%; growth inhibition (GI) [35]: 5.5%; growth inhibition (GI) [36]: 62.5%; IC50 [44]: 23.1 µM; growth inhibition (GI) [37]: 0%; growth inhibition (GI) [45]: 100%; IC50 [46]: 0.3 µM; growth inhibition (GI) [39]: 50%; growth inhibition (GI) [47]: 82.5%; growth inhibition (GI) [40]: 97.5%
